How the values were obtained:
[1] = test system: ASIC channels; details: Supplementary Figure S1 and ref [23]; cited from earlier work
Text: The nocistatin in mammalian is expressed as a precursor protein coding three neuropeptides (nocistatin, nociceptin, and Orphanin FQ2). […] Nocistatin is well represented in different parts of the brain and spinal cord. […] Nocistatin was studied in animal models as a prospective molecule together with opi ...

[2] = test system: ASIC1a; assay: Response of ASIC1a to nociceptin and orphanin; type: cell-based, rat; details: applied under the same conditions as nocistatin, pH 7.4, pH drop to 5.5; n = 4
Experimental: Oocytes expressed rASIC1a, rASIC1b, rASIC2a, and rASIC3 homomeric channels were prepared as described. Injected oocytes were kept for two–three days at 19 °C and then for up to seven days at 15 °C in ND-96 medium supplemented with gentamycin (50 μg·mL^−1) and containing (in mM): 96 NaCl, 2 KCl, 1.8 CaCl2, 1 MgCl2, and 10 HEPES titrated to pH 7.4 with NaOH. Electrophysiological recordings were performed using the GeneClamp500 amplifier (Axon Instruments, Inverurie, UK) at a holding potential of -50 mV. The data were filtered at 20 Hz and digitized at 100 Hz using the L780 AD converter (L-Card, Moscow, Russia). Microelectrodes were filled with 3 M KCl. The external bath solution was ND-96 with pH adjusted to 7.4/7.8 (10 mM HEPES) /8.5 (10 mM Tris). Nocistatin containing solutions were freshly prepared and buffered each experimental day in ND-96 bath solution (pH 7.4/7.8/8.5). Proton-activated currents through ASIC channels were elicited by application of ND-96, in which 10 mM of HEPES was substituted with 10 mM MES at pH 5.5/ 10 mM acetic acid at pH 4.5. The whole-cell recording was performed if a response to the control pH stimulus was stable in at least two replicates. […]
Figure S1. […] Currents were measured at a holding external bath pH 7.4 and were induced by a pH drop to 5.5. […]

[3] = test system: ASIC3; details: cited from earlier work; for Effect on ASIC3: lipids, ref [21]
Text: Acid-sensing ion channels (ASICs) are members of ligand-gated cation channels and belong to the degenerin/epithelial Na^+ channel superfamily. Four genes (ACCN1–ACCN4) express six subunits (ASIC1a, ASIC1b, ASIC2a, ASIC2b, ASIC3, and ASIC4), four of which can form functional homomeric channels (ASIC1a, ASIC1b, ASIC2a, and ASIC3). ASIC channels are widely expressed throughout the neurons of central and peripheral nervous systems, where they play a role in neurotransmission, synaptic plasticity, and learning, and in ischemia, neuronal cell death.

[4] = test system: human ASIC3 channels; parameters: method as in 2 sources, ref [20] = [20]; PMID 29277899; doi:10.1111/bph.14134; 20. Osmakov D.I. Koshelev S.G. Andreev Y.A. Dubinnyi M.A. Kublitski V.S. Efremov R.G. Sobolevsky A.I. Kozlov S.A. Proton-independent activation of acid-sensing ion channel 3 by an alkaloid, lindoldham ||| ref [22] = [22]; PMID 28955199; doi:10.3389/fnmol.2017.00282; 22. Osmakov D.I. Koshelev S.G. Andreev Y.A. Kozlov S.A. Endogenous Isoquinoline Alkaloids Agonists of Acid-Sensing Ion Channel Type 3 Front. Mol. Neurosci. 2017 10 282 10.3389/fnmol.2017.00282 2895519; details: cited from earlier work; for Effect on human ASIC3: physiological pH, prevents steady-state desensitization, ref [22]
[5] = test system: rat ASIC3 channels; parameters: method as in 2 sources, ref [20] = [20]; PMID 29277899; doi:10.1111/bph.14134; 20. Osmakov D.I. Koshelev S.G. Andreev Y.A. Dubinnyi M.A. Kublitski V.S. Efremov R.G. Sobolevsky A.I. Kozlov S.A. Proton-independent activation of acid-sensing ion channel 3 by an alkaloid, lindoldham ||| ref [22] = [22]; PMID 28955199; doi:10.3389/fnmol.2017.00282; 22. Osmakov D.I. Koshelev S.G. Andreev Y.A. Kozlov S.A. Endogenous Isoquinoline Alkaloids Agonists of Acid-Sensing Ion Channel Type 3 Front. Mol. Neurosci. 2017 10 282 10.3389/fnmol.2017.00282 2895519; details: cited from earlier work; for Effect on rat ASIC3: physiological pH, prevents steady-state desensitization, ref [22]
[6] = test system: delayed rectifying K^+, voltage-gated Na^+, and L-type Ca^2+ currents; parameters: method as in PMID 29477572; details: ref [19]; cited from earlier work
[7] = test system: ASIC channels; details: ref [14],[18],[19]; cited from earlier work
Text: All previously known activators of ASIC channels, both exogenous and endogenous, cause a persistent, slowly desensitized current that was different in kinetic parameters from currents induced by pH drops. […] Both agonists show rapid kinetics of desensitization of the currents and have a high Hill coefficient of activation. The identical efficiency with which the toxin Mamb-2 inhibits the nocistatin- and proton ...

[8] = broad range of pH, including pH > 7.4, ref [20]

orphanin: neuropeptide orphanin (Orf) [PNOC_RAT 154–170] (FSEFMRQYLVLSMQSSQ; Orphanin FQ2; UniProt Q62923 154-170, looked up, fragment)
Activating effects on ASIC channels [1]: do not have activating effects on ASIC channels
Effect on ASIC1a [2]: no effect (neither activating nor inhibitory)

nociceptin: neuropeptide nociceptin (NC) [PNOC_RAT 135–151] (FGGFTGARKSARKLANQ; Nociceptin; UniProt Q62923 135-151, looked up, fragment)
Activating effects on ASIC channels [1]: do not have activating effects on ASIC channels
Effect on ASIC1a [2]: no effect (neither activating nor inhibitory)

lysophosphatidylcholine [lysophosphatidylcholine (LPC)]
Effect on ASIC3 [3]: evoking a constitutive depolarizing ASIC3-mediated current

Oc1ccc(CC2NCCc3cc(O)c(O)cc32)cc1O (stereo not drawn) [tetrahydropapaveroline (THP), tetrahydropapaveroline]
Effect on human ASIC3 [4]: activating human and rat ASIC3 channels at physiological pH and preventing a steady-state desensitization of the channels
Effect on rat ASIC3 [5]: activating human and rat ASIC3 channels at physiological pH and preventing a steady-state desensitization of the channels

CCCCC/C=C\C/C=C\C/C=C\C/C=C\CCCC(=O)O [arachidonic acid]
Effect on ASIC3 [3]: evoking a constitutive depolarizing ASIC3-mediated current

COc1cc2c(cc1O)[C@H](Cc1ccc(Oc3cc(C[C@@H]4NCCc5cc(OC)c(O)cc54)ccc3O)cc1)NCC2 [lindoldhamine]
Action on human ASIC3 [4, 8]: agonist and positive allosteric modulator
Action on rat ASIC3 [5, 8]: agonist and positive allosteric modulator

COc1ccc(C[C@H]2c3cc(O)c(OC)cc3CCN2C)cc1O [reticuline]
Effect on human ASIC3 [4]: activating human and rat ASIC3 channels at physiological pH and preventing a steady-state desensitization of the channels
Effect on rat ASIC3 [5]: activating human and rat ASIC3 channels at physiological pH and preventing a steady-state desensitization of the channels

Cc1nc(NC(=N)N)nc2ccccc12 [GMQ, 2-guanidine-4-methylquinazoline]
Modulation of K^+, Na^+ and Ca^2+ currents [6]: modulating delayed rectifying K^+, voltage-gated Na^+, and L-type Ca^2+ currents
Action on ASIC3 ([3]; pH < 7.4, ref [18]): acting on ASIC3 at pH < 7.4 through a nonproton sensor
Shape of current caused by activator [7]: slowly developing, non-desensitizing and non-selective cation current
